According to US12662473B2, “Inhibitors for programmed cell necrosis and preparation method therefor and use thereof” (SHANGHAI INSTITUTE OF ORGANIC CHEMISTRY, CHINESE ACADEMY OF …, priority 2019, dated 2026):
Read-outs that look alike come from different tables or passages of the source.

Columns and labels:
FADD−/− Jurkat cells = assay: TNF-induced programmed cell necrosis inhibition, Cell Titer-Glo viability; format: cell-based
From the text: (§1) The adopted biological assay protocol was: the programmed necroptosis effect of compounds on TNF-induced in FADD (Fas-Associated Death Domain) deficient Jurkat cells and L929 cells.
(§2) In order to verify the inhibitory effect of the compounds of the present invention on programmed cell necrosis at the cellular level, cell types closely related to the RIP1 pathway, namely FADD deficient Jurkat cells (human peripheral blood leukemia T cell line) and L929 cells, were selected. Two different stimulation methods were used: tumor necrosis factor (TNFα) used alone, or TNFα used in combination with mitochondria-derived cysteine aspartate activator (SMAC). Cells viability was calculated by detecting chemiluminescence values, and the biological activity of the compound for inhibiting programmed cell necrosis can be obtained.
(§3) Methods: FADD deficient Jurkat cells: FADD deficient Jurkat cells (human peripheral blood leukemia T cell line) were cultured in vitro. After growing to the logarithmic growth phase, the cells were collected, centrifuged at 1000 rpm for 5 min, the supernatant was discarded, and the cell concentration was adjusted to 2.5×10^5/mL. Cells were seeded into 384-well plates, 40 μl per well. 5 μL of Smac (50 nM) diluted in cell culture medium and 5 μL of each compound were added to the corresponding wells. After pretreatment at 37° C. for 1 h, 5 μL of TNFα (50 ng/mL) diluted in cell culture medium was added to each well of the stimulation group, and 5 μL of the culture medium was added to the control group. The plate was cultured in a cell incubator (37° C., 5% CO2) for 14 h, and 15 μl of Cell Titer-Glo solution was added to each well, then incubated for 30 min at room temperature, and intracellular ATP level was measured by detecting luminescence. The unstimulated DMSO control wells were taken as 100% cell viability. L929 cells: The L929 cells (mouse fibroblasts) were cultured in vitro, digested and diluted to 6.25×10^4/ml, and the cells were seeded into 384-well plates, 40 μl per well. The plate was placed in a cell incubator (37° C., 5% CO2) for 12 hours. 5 μL of Smac (500 nM) diluted in cell culture medium and 5 μL of each compound were added to the corresponding wells. After pretreatment at 37° C. for 1 h, 5 μL of TNFα (500 ng/mL) diluted in cell culture medium was added to each well of the stimulation group, and 5 μL of the culture medium was added to the control group. After the plate was cultured for 14 h in a cell incubator (37° C., 5% CO2), 15 μl of Cell Titer-Glo solution was added to each well. The plate was incubated at room temperature for 30 min, and intracellular ATP level was measured by detecting luminescence. The unstimulated DMSO control wells were taken as 100% cell viability. EC50 values of the compounds were calculated using Prism Graphpad statistical software.
FADD deficient Jurkat cells: FADD deficient Jurkat cells (human peripheral blood leukemia T cell line) were cultured in vitro. After growing to the logarithmic growth phase, the cells were collected, centrifuged at 1000 rpm for 5 min, the supernatant was discarded, and the cell concentration was adjusted to 2.5×10^5/mL. Cells were seeded into 384-well plates, 40 μl per well. 5 μL of Smac (50 nM) diluted in cell culture medium and 5 μL of each compound were added to the corresponding wells. After pretreatment at 37° C. for 1 h, 5 μL of TNFα (50 ng/mL) diluted in cell culture medium was added to each well of the stimulation group, and 5 μL of the culture medium was added to the control group. After the plate was cultured in a cell incubator (37° C., 5% CO2) for 14 h, 15 μl of Cell Titer-Glo solution was added to each well. The mixture was incubated for 30 min at room temperature, and intracellular ATP level was measured by detecting luminescence. The unstimulated DMSO control wells were taken as 100% cell viability.

L929 cells = assay: as above; format: cell-based, mouse; settings: read-out: EC50 inhibitory activity on programmed cell necrosis
From the text: as §1, §2, §3
L929 cells: The L929 cells (mouse fibroblasts) were cultured in vitro, digested and diluted to 6.25×10^4/ml, and the cells were seeded into 384-well plates, 40 μl per well. The plate was placed in a cell incubator (37° C., 5% CO2) for 12 hours. 5 μL of Smac (500 nM) diluted in cell culture medium and 5 μL of each compound were added to the corresponding wells. After pretreatment at 37° C. for 1 h, 5 μL of TNFα (500 ng/mL) diluted in cell culture medium was added to each well of the stimulation group, and 5 μL of the culture medium was added to the control group. After the plate was cultured for 14 h in a cell incubator (37° C., 5% CO2), and 15 μl of Cell Titer-Glo solution was added to each well, then incubated at room temperature for 30 min, and intracellular ATP level was measured by detecting luminescence. The unstimulated DMSO control wells were taken as 100% cell viability.

[1] = Homo sapiens, Jurkat, 14 h, TNFa + SM164, read-out: EC50 inhibitory activity on programmed cell necrosis
[2] = Homo sapiens, Jurkat, TNFa, read-out: EC50 inhibitory activity on programmed cell necrosis
[3] = Mus musculus, L929, 14 h, L929 cells (mouse), TNFa + SM164
[4] = Mus musculus, L929, L929 cells (mouse), TNFa

Compound | EC50 (FADD−/− Jurkat cells; [1]) | EC50 (FADD−/− Jurkat cells; [2]) | EC50 (L929 cells; [3]) | EC50 (L929 cells; [4]) | EC50 (FADD−/− Jurkat cells; FADD−/− Jurkat cells (human), TNFa + SM164, read-out: EC50 inhibitory activity on programmed cell necrosis) | EC50 (FADD−/− Jurkat cells; FADD−/− Jurkat cells (human), TNFa, read-out: EC50 inhibitory activity on programmed cell necrosis) | EC50 (L929 cells; L929 cells (mouse), TNFa + SM164) | EC50 (L929 cells; L929 cells (mouse), TNFa)
Cc1ccc([C@@H]2CCCN2C(=O)C(C)(C)Oc2ccc(Cl)cc2)cc1 (stereo in doubt) [QY-5-21] | 0.696 µM | 0.093 µM | 0.208 µM | 0.0599 µM | – | – | – | –
CN1C(=O)NC(Cc2c[nH]c3c(Cl)cccc23)C1=O (stereo not drawn) [Compound 7-Cl-O-Nec-1, reference compound] | – | – | – | – | 0.337 µM | 0.076 µM | 0.924 µM | 0.155 µM
Cc1noc([C@@H]2CCCN2C(=O)C(C)(C)Oc2ccccc2)n1 [QY-2-25] | > 10 µM | 6.18 µM | > 10 µM | 2.67 µM | – | – | – | –
Cc1noc([C@@H]2CCCN2C(=O)C(C)(C)Oc2ccc(F)cc2)n1 [QY-2-26] | > 10 µM | 0.417 µM | 0.982 µM | 0.182 µM | – | – | – | –
Cc1noc([C@@H]2CCCN2C(=O)C(C)(C)Oc2ccc(N(C)C)cc2)n1 [QY-2-27] | > 10 µM | 9.38 µM | > 10 µM | > 10 µM | – | – | – | –
CC(C)(Oc1ccc(Cl)cc1)C(=O)N1CCC[C@H]1c1nnc(N)s1 [QY-2-34] | > 10 µM | > 10 µM | > 10 µM | > 10 µM | – | – | – | –
Cc1nc([C@@H]2CCCN2C(=O)C(C)(C)Oc2ccc(Cl)cc2)sc1C [QY-2-38] | > 10 µM | 1.7 µM | > 10 µM | 1.55 µM | – | – | – | –
CC(C)(Oc1ccc(Cl)cc1)C(=O)N1CCC[C@H]1c1nccs1 [QY-2-39] | > 10 µM | 1.06 µM | 8.92 µM | 1.9 µM | – | – | – | –
Cc1csc([C@@H]2CCCN2C(=O)C(C)(C)Oc2ccc(Cl)cc2)n1 [QY-2-52] | 2.24 µM | 0.464 µM | 2.37 µM | 0.419 µM | – | – | – | –
Cc1cc([C@@H]2CCCN2C(=O)C(C)(C)Oc2ccc(Cl)cc2)on1 [QY-2-53] | 1.34 µM | 0.199 µM | 1.17 µM | 0.172 µM | – | – | – | –
COc1ccc(OC(C)(C)C(=O)N2CCC[C@H]2c2nc(C)no2)cc1 [QY-2-54] | > 10 µM | > 10 µM | > 10 µM | 6.19 µM | – | – | – | –
Cc1noc([C@@H]2CCCN2C(=O)C(C)(C)Oc2ccc(C#N)cc2)n1 [QY-2-55] | 2.22 µM | 0.14 µM | 0.233 µM | 0.025 µM | – | – | – | –
Cc1noc([C@@H]2CCCN2C(=O)C(C)(C)Oc2ccc(-c3ccccc3)cc2)n1 [QY-2-56] | > 10 µM | > 10 µM | > 10 µM | 2.12 µM | – | – | – | –
Cc1noc([C@@H]2CCCN2C(=O)C(C)(C)Oc2ccc(I)cc2)n1 [QY-2-75] | 5.15 µM | 0.608 µM | > 10 µM | 2.45 µM | – | – | – | –
Cc1noc([C@@H]2CCCN2C(=O)C(C)(C)Oc2ccc(OC(F)(F)F)cc2)n1 [QY-2-76] | 3.96 µM | > 10 µM | > 10 µM | > 10 µM | – | – | – | –
Cc1ccc(OC(C)(C)C(=O)N2CCC[C@H]2c2nc(C)no2)cc1 [QY-2-77] | > 10 µM | 7.9 µM | > 10 µM | 4.26 µM | – | – | – | –
Cc1noc([C@@H]2CCCN2C(=O)C(C)(C)Oc2ccc(Oc3ccccc3)cc2)n1 [QY-2-78] | > 10 µM | 0.127 µM | > 10 µM | > 10 µM | – | – | – | –
Cc1noc([C@@H]2CCCN2C(=O)C(C)(C)Oc2cccc(Cl)c2)n1 [QY-2-79] | 8.93 µM | 2.03 µM | 1.62 µM | 0.212 µM | – | – | – | –
CC(C)(Oc1ccc(Cl)cc1)C(=O)N1CCC[C@H]1c1nc(C2CC2)no1 [QY-2-100] | > 10 µM | 2.24 µM | > 10 µM | 2.48 µM | – | – | – | –
CCCCc1noc([C@@H]2CCCN2C(=O)C(C)(C)Oc2ccc(Cl)cc2)n1 [QY-2-103] | > 10 µM | > 10 µM | > 10 µM | > 10 µM | – | – | – | –
CC(C)(Oc1ccc(Cl)cc1)C(=O)N1CCC[C@H]1c1nc(Cc2ccccc2)no1 [QY-2-104] | > 10 µM | > 10 µM | > 10 µM | > 10 µM | – | – | – | –
